Laboratory results as given in patent publication US6274715A, “Tricyclic erythromycin derivatives” (priority 1997, dated 2001).
≈ marks a conversion by molar mass, not a printed value.

What was measured:
Format in all cases: cell-based
PSEUDOMONAS CEPACIA 296I = assay: In vitro antibacterial activity, MIC, BHI agar dilution; conditions: P. cepacia 296I, unit assumed
[1] = test system: PSEUDOMONAS AERUGINOSA DPHD-2862; assay: as above; conditions: P. aeruginosa DPHD-2862, unit assumed
[2] = test system: PSEUDOMONAS AERUGINOSA DPHD-5263; assay: as above; conditions: P. aeruginosa DPHD-5263, unit assumed
[3] = test system: MYCOBACTERIUM SMEGMATIS ATCC 114; assay: as above; conditions: M. smegmatis ATCC 114, unit assumed
ESCHERICHIA COLI H560 = assay: as above; conditions: E. coli H560, unit assumed
[4] = test system: STAPHYLOCOCCUS AUREUS ATCC 6538P; assay: as above; conditions: S. aureus ATCC 6538P, 35-37° C., 20 to 24 hours, unit assumed
[5] = test system: PSEUDOMONAS AERUGINOSA BMH10; assay: as above; conditions: P. aeruginosa BMH10, unit assumed
[6] = test system: ACINETOBACTER CALCOACETICUS CMX 669; assay: as above; conditions: A. calcoaceticus CMX 669, unit assumed
[7] = test system: STAPHYLOCOCCUS AUREUS 1775; assay: as above; conditions: S. aureus 1775, unit assumed
[8] = test system: STREPTOCOCCUS PYOGENES PIU 2548; assay: as above; conditions: S. pyogenes PIU 2548, unit assumed
[9] = test system: STAPHYLOCOCCUS AUREUS NCTC10649M; assay: as above; conditions: S. aureus NCTC10649M, unit assumed
[10] = test system: STAPHYLOCOCCUS AUREUS CMX 553; assay: as above; conditions: S. aureus CMX 553, unit assumed
[11] = test system: PSEUDOMONAS AERUGINOSA K799/61; assay: as above; conditions: P. aeruginosa K799/61, unit assumed
[12] = test system: STAPHYLOCOCCUS AUREUS A-5278; assay: as above; conditions: S. aureus A-5278, unit assumed
M[…] ATCC 4698 = assay: as above; conditions: M. luteus ATCC 4698, unit assumed
Method in brief: (§1)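 Agar dilution in BHI: plates inoculated with 1:100 dilutions of organisms (1:10 for Micrococcus and Streptococcus), incubated 20-24 h at 35-37° C, then inspected for the lowest inhibitory concentration against a drug-free growth control.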

STR[…] 508 = assay: as above; conditions: S. agalactiae CMX 508, unit assumed
Method in brief: as §1

EN[…] ATCC 8043 = assay: as above; conditions: E. faecium ATCC 8043, unit assumed
Method in brief: as §1

M[…] ATCC 9341 = assay: as above; conditions: M. luteus ATCC 9341, unit assumed
Method in brief: as §1

[13] = test system: STREPTOCOCCUS PYOGENES 930; assay: as above; conditions: S. pyogenes 930, unit assumed
[14] = test system: STAPHYLOCOCCUS AUREUS CMX 642A; assay: as above; conditions: S. aureus CMX 642A, unit assumed
[15] = test system: STREPTOCOCCUS BOVIS A-5169; assay: as above; conditions: S. bovis A-5169, unit assumed
[16] = test system: PSEUDOMONAS AERUGINOSA 5007; assay: as above; conditions: P. aeruginosa 5007, unit assumed
[17] = test system: STREPTOCOCCUS PYOGENES EES61; assay: as above; conditions: S. pyogenes EES61, unit assumed
ESCHERICHIA COLI KNK 437 = conditions: E. coli KNK 437; BHI agar; unit assumed
[18] = test system: ENTEROBACTER AEROGENES ATCC 13048; assay: In vitro antibacterial activity, MIC, BHI agar dilution; conditions: E. aerogenes ATCC 13048, unit assumed
CANDIDA ALBICANS CCH 442 = assay: as above; conditions: C. albicans CCH 442, unit assumed
ESCHERICHIA COLI JUHL = conditions: E. coli JUHL; BHI agar; unit assumed
ESCHERICHIA COLI SS = assay: In vitro antibacterial activity, MIC, BHI agar dilution; conditions: E. coli SS, unit assumed
[19] = test system: PROVIDENCIA STUARTII CMX 640; conditions: P. stuartii CMX 640; BHI agar; unit assumed
[20] = test system: STAPHYLOCOCCUS EPIDERMIDIS 3519; conditions: S. epidermidis 3519; BHI agar; unit assumed
[21] = test system: PSEUDOMONAS AERUGINOSA K799/WT; assay: In vitro antibacterial activity, MIC, BHI agar dilution; conditions: P. aeruginosa K799/WT, unit assumed
ESCHERICHIA COLI DC-2 = assay: as above; conditions: E. coli DC-2, unit assumed
[22] = test system: KLEBSIELLA PNEUMONIAE ATCC 8045; assay: as above; conditions: K. pneumoniae ATCC 8045, unit assumed

Compound | MIC (PSEUDOMONAS CEPACIA 296I) [µg/mL] | MIC [1] [µg/mL] | MIC [2] [µg/mL] | MIC [3] [µg/mL] | MIC (ESCHERICHIA COLI H560) [µg/mL] | MIC [5] [µg/mL] | MIC [6] [µg/mL] | MIC [7] [µg/mL] | MIC [8] [µg/mL] | MIC [12] [µg/mL] | MIC (M[…] ATCC 9341) [µg/mL] | MIC [13] [µg/mL] | MIC [14] [µg/mL] | MIC [15] [µg/mL] | MIC [16] [µg/mL] | MIC [18] [µg/mL] | MIC (CANDIDA ALBICANS CCH 442) [µg/mL] | MIC (ESCHERICHIA COLI JUHL) [µg/mL] | MIC [19] [µg/mL] | MIC [20] [µg/mL] | other results
CC[C@H]1OC(=O)[C@H](C)C(=O)[C@H](C)[C@@H](O[C@@H]2O[C@H](C)C[C@H](N(C)C)[C@H]2O)[C@](C)(OC)C[C@@H](C)C2=NC[C@H](Cc3ccccc3)N3C(=O)O[C@@]1(C)[C@H]3[C@H]2C [Example 5] | 25 (≈ 34.3 µM) | > 100 | > 100 | 0.2 (≈ 0.275 µM) | 3.1 (≈ 4.26 µM) | 50 (≈ 68.7 µM) | 12.5 (≈ 17.2 µM) | > 100 | 0.39 (≈ 0.536 µM) | > 100 | 0.05 (≈ 0.0687 µM) | > 100 | 0.2 (≈ 0.275 µM) | 0.01 (≈ 0.0137 µM) | > 100 | 50 (≈ 68.7 µM) | > 100 | 12.5 (≈ 17.2 µM) | > 100 | 0.2 (≈ 0.275 µM) | MIC [4]: 0.2 µg/mL (≈ 0.275 µM); MIC [9]: 0.2 µg/mL (≈ 0.275 µM); MIC [10]: 0.2 µg/mL (≈ 0.275 µM); MIC [11]: 0.78 µg/mL (≈ 1.07 µM); MIC (M[…] ATCC 4698): 0.2 µg/mL (≈ 0.275 µM); MIC (STR[…] 508): 0.02 µg/mL (≈ 0.0275 µM); MIC (EN[…] ATCC 8043): 0.05 µg/mL (≈ 0.0687 µM); MIC [17]: 0.02 µg/mL (≈ 0.0275 µM); MIC (ESCHERICHIA COLI KNK 437): 6.2 µg/mL (≈ 8.52 µM); MIC (ESCHERICHIA COLI SS): 0.39 µg/mL (≈ 0.536 µM); MIC [21]: 50 µg/mL (≈ 68.7 µM)
CC[C@H]1OC(=O)[C@H](C)C(=O)[C@H](C)[C@@H](O[C@@H]2O[C@H](C)C[C@H](N(C)C)[C@H]2O)[C@](C)(OC)C[C@@H](C)C2=N[C@H](C)[C@H](C)N3C(=O)O[C@@]1(C)[C@H]3[C@H]2C [Example 10] | 100 (≈ 150 µM) | > 100 | > 100 | 6.2 (≈ 9.31 µM) | 25 (≈ 37.5 µM) | > 100 | 25 (≈ 37.5 µM) | > 100 | 0.39 (≈ 0.586 µM) | > 100 | 0.1 (≈ 0.15 µM) | > 100 | 0.39 (≈ 0.586 µM) | 0.05 (≈ 0.0751 µM) | > 100 | 50 (≈ 75.1 µM) | > 100 | 25 (≈ 37.5 µM) | > 100 | 0.39 (≈ 0.586 µM) | MIC [4]: 0.39 µg/mL (≈ 0.586 µM); MIC (ESCHERICHIA COLI DC-2): 25 µg/mL (≈ 37.5 µM); MIC [9]: 0.39 µg/mL (≈ 0.586 µM); MIC [10]: 0.39 µg/mL (≈ 0.586 µM); MIC (M[…] ATCC 4698): 0.2 µg/mL (≈ 0.3 µM); MIC (ESCHERICHIA COLI SS): 0.2 µg/mL (≈ 0.3 µM)
CC[C@H]1OC(=O)[C@H](C)C(=O)[C@H](C)[C@@H](O[C@@H]2O[C@H](C)C[C@H](N(C)C)[C@H]2O)[C@](C)(OC)C[C@@H](C)C2=NC[C@@H](CCCc3ccccc3)N3C(=O)O[C@@]1(C)[C@H]3[C@H]2C [Example 36] | 50 (≈ 66.1 µM) | 50 (≈ 66.1 µM) | 50 (≈ 66.1 µM) | 0.39 (≈ 0.516 µM) | 25 (≈ 33.1 µM) | 50 (≈ 66.1 µM) | 50 (≈ 66.1 µM) | > 100 | 0.39 (≈ 0.516 µM) | > 100 | 0.05 (≈ 0.0661 µM) | 50 (≈ 66.1 µM) | 0.2 (≈ 0.265 µM) | 0.01 (≈ 0.0132 µM) | 100 (≈ 132 µM) | 25 (≈ 33.1 µM) | 100 (≈ 132 µM) | 50 (≈ 66.1 µM) | 100 (≈ 132 µM) | 0.2 (≈ 0.265 µM) | MIC [4]: 0.2 µg/mL (≈ 0.265 µM); MIC [22]: 50 µg/mL (≈ 66.1 µM); MIC [9]: 0.2 µg/mL (≈ 0.265 µM); MIC [11]: 1.56 µg/mL (≈ 2.06 µM); MIC (STR[…] 508): 0.05 µg/mL (≈ 0.0661 µM); MIC (EN[…] ATCC 8043): 0.2 µg/mL (≈ 0.265 µM); MIC (ESCHERICHIA COLI KNK 437): 12.5 µg/mL (≈ 16.5 µM); MIC [21]: 50 µg/mL (≈ 66.1 µM)
CC[C@H]1OC(=O)[C@H](C)C(=O)[C@H](C)[C@@H](O[C@@H]2O[C@H](C)C[C@H](N(C)C)[C@H]2O)[C@](C)(OC)C[C@@H](C)C2=NC3CN(CCOC)CC3N3C(=O)O[C@@]1(C)[C@H]3[C@H]2C (some centres unmarked) [Example 126] | > 100 | > 100 | > 100 | 12.5 (≈ 17 µM) | > 100 | > 100 | 100 (≈ 136 µM) | > 100 | 1.56 (≈ 2.12 µM) | > 100 | 0.2 (≈ 0.271 µM) | > 100 | 1.56 (≈ 2.12 µM) | 0.02 (≈ 0.0271 µM) | > 100 | > 100 | > 100 | > 100 | > 100 | 1.56 (≈ 2.12 µM) | MIC (ESCHERICHIA COLI DC-2): > 100 µg/mL; MIC [22]: > 100 µg/mL; MIC [10]: 1.56 µg/mL (≈ 2.12 µM); MIC [11]: 3.1 µg/mL (≈ 4.21 µM); MIC (M[…] ATCC 4698): 0.78 µg/mL (≈ 1.06 µM); MIC (STR[…] 508): 0.05 µg/mL (≈ 0.0678 µM); MIC (EN[…] ATCC 8043): 0.2 µg/mL (≈ 0.271 µM); MIC [17]: 0.05 µg/mL (≈ 0.0678 µM); MIC (ESCHERICHIA COLI KNK 437): > 100 µg/mL; MIC (ESCHERICHIA COLI SS): 0.78 µg/mL (≈ 1.06 µM); MIC [21]: > 100 µg/mL
